The source of these data is US12612431B2, “Cyclic compounds for treating cancer” (University of South Florida, priority 2021, dated 2026).

For series [1] the following is noted: cited from earlier work.
For series [2] the following is noted: general statement on the positive control; cited from earlier work.
A short description of series [3]: PAMPA-BBB assay. The settings on record: pH 7.4.
Description: (§7) Carbamazepine and Antipyrine were used as the positive and negative control compounds for the assay.
The parallel artificial membrane permeability assay—blood brain barrier (PAMPA-BBB) assay procedure was realized by using a method developed by pION. All liquid handling steps for the PAMPA assay are performed on a TECAN Fredom EVO150 robot and analyzed by the pION's PAMPA Evolution Software. The pION's PAMPA-BBB includes the brain sink buffer (BSB), the BBB-1 Lipid Solution and the Stirwell™ PAMPA Sandwich plate, preloaded with magnetic disks. 4 μL of lipid were transferred in the acceptor well, followed by addition of 200 μL of BSB (pH 7.4). […] The PAMPA sandwich plate was assembled and placed on the Gut-Box™ and stirred with 60 μm Aqueous Boundary Layer (ABL) settings for 1 hour. The distribution of the compounds in the donor and acceptor buffers (150 μL aliquot) was determined by UV spectra measurement from 200 to 500 nm using the Tecan infinite M-1000 pro microplate reader. […] Experiments were repeated three times.
Series [4] has as its system Human Embryonic Kidney HEK293 cells.
Series [5] has as its system A549 cells. Put plainly: Scratch-wound (cell wound healing) assay. It is filed as cell-based. Conditions: A549, 25 μM, 30 h. The method, then: (§1) M-2-5's inhibitory effect on cell migration of A549 cells, which plays an important role in tumor metastatic activity, was then investigated. First, a scratch-wound assay was established to investigate the cell migratory behaviors.
A549 cells in good condition were seeded into a 12-well plate at a concentration of 5×10^4 cells/well. After 24 h attachment at 37° C. and 5% CO2, they reached confluence as a monolayer. The monolayer was scratched gently and slowly with a new 200 μL pipette tip across the center of the well straightly. After scratching, the well was washed twice with medium to remove the detached cells. The well was then replenished with fresh medium containing different concentration of M-2-5. The photo was taken for the scratched monolayer and then captured again after 30 h for the same wound. The wound width was measured by ImageJ. The experiments were conducted in triplicates and repeated for three times.

Series [6] has as its system AKT phosphorylation (P-AKT). Put plainly: Western blot of downstream AKT phosphorylation in A549 cells. It is filed as cell-based. The settings on record: starved A549 cells, 4 h pretreatment, EGF 100 ng/mL. The method, then: (§2) A549 cells were chosen due to their elevated expression of EGFR. […] The ability of M-2-5 to inhibit EGF-stimulated tyrosine phosphorylation of EGFR, as well as downstream AKT and ERK pathways in a dose-dependent manner was then investigated.
(§3) A549 cells were seeded into a 6-well plate at a concentration of 1×10^5 cells/well. After 12 h attachment at 37° C. and 5% CO2, the cells were starved overnight in serum-reduced DMEM followed by treatment with different concentration of M-2-5 for 4 h. […] Subsequently, the cells were incubated on ice for 10 min and centrifuged at 14,000×g at 4° C. for 10 min. An equal amount of protein was run on 4˜12% Bis-Tris gels, transferred to polyvinylidene difluoride membranes (Millipore) and western blotted with anti-phosphorylated EGFR, anti-phosphorylated AKT, anti-phosphorylated ERK and GAPDH. The experiments were conducted in triplicates and repeated for three times.

Series [7] deals with A549 cells. Put plainly: Transwell migration assay. It is filed as cell-based. Conditions: A549, EGF + M-2-5 25 μM, 12 h. The procedure: as §1
A549 cells in good condition were seeded into a 100 mm dish at a concentration of 5×10^5 cells. After overnight attachment at 37° C. and 5% CO2, culture medium was replaced with serum reduced DMEM medium, and the dish was returned to incubator for 24 h. Cells were the detached and resuspended in DMEM at a concentration of 1×10^6 cells/mL. Next, 100 μL of cell solution was plated on top of the filter membrane in a transwell insert and incubated for 10 minutes at 37° C. and 5% CO2 to allow the cells to settle down. Subsequently, 600 μL of the desired chemo-attractant was added very carefully into the bottom of the lower chamber in a 24-well plate. The culture was incubated for 12 h, and then the transwell insert was removed from the plate. A cotton-tipped applicator was used as many times as needed to carefully swab the inside of each insert. Cells were fixed by 70% ethanol, stained by 0.2% crystal violet and visualized by microscope. Transwell data was determined by the number of the migrated cells and the value from parental cells was arbitrarily set at 100%. The experiments were conducted in triplicates and repeated for three times.

For series [8], the system named is ERK phosphorylation (P-ERK). Description: Western blot of downstream ERK phosphorylation in A549 cells. It is filed as cell-based. The settings on record: starved A549 cells, 4 h pretreatment, EGF 100 ng/mL. The procedure:
as §2, §3

Series [9] deals with pronase. Description: Enzymatic stability assay toward pronase. Conditions: 0.1 mg/mL pronase, 100 mM ammonium bicarbonate buffer, 37° C., 20 h. It is filed as in vitro ADME. The procedure: As M-2-5 is a promising ligand to block EGFR signaling in vitro, its enzymatic stability toward pronase (the enzyme theoretically digesting peptides into single amino acids), which is critical for their potential biological activity in vivo was evaluated.
Cyclic γ-AApeptides M-2-5 (0.1 mg/mL) were incubated with 0.1 mg/mL protease in 100 mM ammonium bicarbonate buffer (pH 7.8) at 37° C. for 20 h. Then, the reaction mixtures were concentrated in a speed vacuum to remove water and ammonium bicarbonate. The resulting residues were re-dissolved in H2O/MeCN and analyzed on a Waters analytical HPLC system.

For series [10], the target named is T1, P-EGFR (Homo sapiens, UniProt P00533).
T1 construct: from tissue; host or cells: A549 xenograft tumours from nude mice
T1 sequence (P00533 25-1210): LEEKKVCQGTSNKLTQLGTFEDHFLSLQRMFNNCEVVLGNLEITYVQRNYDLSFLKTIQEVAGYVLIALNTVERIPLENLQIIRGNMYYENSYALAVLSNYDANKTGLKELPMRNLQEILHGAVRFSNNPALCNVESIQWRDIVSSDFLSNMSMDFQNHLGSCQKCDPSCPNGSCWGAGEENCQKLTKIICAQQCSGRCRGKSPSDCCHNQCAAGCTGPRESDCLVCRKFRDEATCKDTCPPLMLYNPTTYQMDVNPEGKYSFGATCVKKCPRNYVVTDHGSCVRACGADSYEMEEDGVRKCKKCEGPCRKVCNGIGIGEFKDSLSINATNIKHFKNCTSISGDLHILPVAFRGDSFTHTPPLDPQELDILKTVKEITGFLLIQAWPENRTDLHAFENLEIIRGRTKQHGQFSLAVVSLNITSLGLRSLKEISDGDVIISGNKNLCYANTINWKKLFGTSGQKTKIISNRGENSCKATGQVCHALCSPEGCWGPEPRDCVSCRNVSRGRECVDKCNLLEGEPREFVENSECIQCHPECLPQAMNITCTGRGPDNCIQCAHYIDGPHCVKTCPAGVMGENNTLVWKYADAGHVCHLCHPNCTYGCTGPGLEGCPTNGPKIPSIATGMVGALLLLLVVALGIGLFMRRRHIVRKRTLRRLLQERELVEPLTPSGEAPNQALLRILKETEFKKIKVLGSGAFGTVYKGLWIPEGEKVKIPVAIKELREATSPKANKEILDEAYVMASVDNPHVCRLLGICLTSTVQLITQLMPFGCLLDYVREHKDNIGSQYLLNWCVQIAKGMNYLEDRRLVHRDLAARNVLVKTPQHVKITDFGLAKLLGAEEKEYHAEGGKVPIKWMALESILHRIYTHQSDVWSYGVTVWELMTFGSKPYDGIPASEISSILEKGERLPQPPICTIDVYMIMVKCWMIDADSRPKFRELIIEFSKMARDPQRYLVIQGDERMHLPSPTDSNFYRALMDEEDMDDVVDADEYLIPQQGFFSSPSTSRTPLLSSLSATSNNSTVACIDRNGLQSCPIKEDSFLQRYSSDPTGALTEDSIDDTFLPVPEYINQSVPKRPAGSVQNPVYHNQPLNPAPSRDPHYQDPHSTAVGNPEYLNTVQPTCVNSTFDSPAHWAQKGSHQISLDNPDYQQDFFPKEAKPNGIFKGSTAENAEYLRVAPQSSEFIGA
Description: Western blot of P-EGFR in A549 tumor lysates. The format is in vivo, mice. Conditions: M-2-5 50 mg/kg. The method, then: (§4) After another 6 days post injection, mice were sacrificed, and tumors were resected. […] To confirm the expression level of P-EGFR and downstream signaling, the total proteins were extracted from tumor tissues in each group and subjected to immunoblotting of P-EGFR, P-ARK and P-ERK. […] In addition, the phosphorylation level of EGFR in the A549 tumor sections was analyzed by immunohistochemical staining.
(§5) The supernatant was transferred to a new tube and samples were centrifuged at 14,000 rpm for 15 min at 4° C. to remove any remaining insoluble material. The supernatant containing soluble proteins was transferred to a new tube and an aliquot was taken for the quantification and the further western blot analysis.

In series [11] the test system is A549 cells. Put plainly: EGF-driven cell proliferation assay (CCK-8). It is filed as cell-based. The settings on record: A549, EGF 100 ng/mL, 48 h. The procedure: A549 cells were cultured in high-glucose DMEM (Gibco) medium containing 10% fetal bovine serum and 1% penicillin/streptomycin in an atmosphere of 5% CO2 at 37° C. A549 cells in good condition were seeded into a 96-well plate at a concentration of 1×10^3 cells/well in 100 of complete growth medium. After 24 hours of attachment at 37° C. and 5% CO2, medium was replaced by fresh serum reduced DMEM and cell were serum-starved overnight. […] After 48 h, the CCK-8 reagents were added according to the manufacturer's recommendations.

The test system of series [12] is P-ERK. Description: Western blot of P-ERK in A549 tumor lysates. The settings on record: M-2-5 50 mg/kg, compared to C225. The format is in vivo, mice. The method, then:
(§6) Based upon the observed strong inhibition of cell proliferation and migration, the ability to inhibit EGFR cell signaling pathways in vitro, as well as the remarkable stability against proteolytic degradation, the antitumor activity of M-2-5 in a A549 lung tumor xenograft mouse model was evaluated in vivo. […] After another 6 days post injection, mice were sacrificed, and tumors were resected. […] To confirm the expression level of P-EGFR and downstream signaling, the total proteins were extracted from tumor tissues in each group and subjected to immunoblotting of P-EGFR, P-ARK and P-ERK. […] In addition, the phosphorylation level of EGFR in the A549 tumor sections was analyzed by immunohistochemical staining. […] Together with its similar function to monoclonal antibody and its high resistance toward proteolytic degradation, it could be further investigated for promising clinical anti-cancer drug development.
For the detection of phosphorylated EGFR, AKT and ERK in tumors in vivo, a portion of the tumor (80 mg) was immersed in 500 μL extraction buffer (50 mM Tris-HCl (pH 7.4), 150 mM NaCl, 1% NP-40, 0.25% Na-deoxycholate, Protease Inhibitor, SDS 0.1-2%), and tubes were vortexed briefly. […] The supernatant containing soluble proteins was transferred to a new tube and an aliquot was taken for the quantification and the further western blot analysis.

The test system of series [13] is P-AKT. Put plainly: Western blot of P-AKT in A549 tumor lysates. It is filed as in vivo, mice. The settings on record: M-2-5 50 mg/kg. The procedure:
as §4, §5

The test system of series [14] is A549 lung tumor xenograft. Description: Antitumor study in A549 lung tumor xenograft mouse model. It is filed as in vivo, mice. The settings on record: every two days for seven times.
Series [15] in a line: Body weight of A549 tumor xenografted mice. The format is in vivo. Conditions: 10 and 50 mg/kg intraperitoneal, FIG. 10. The procedure:
as §6
A549 cells were harvested, resuspended in PBS, and injected subcutaneously into 4-6 weeks old Male BALB/c nude mice. When the tumors reach an average size of 100 mm^3, the mice were then randomized divided into four treatment groups: Control (PBS), C-225 (40 mg/kg), M-2-5 (10 mg/kg) and M-2-5 (50 mg/kg). […] The tumor volumes were determined by measuring length (l) and width (w) and calculating volume (V=lw^2/2).

The target in series [16] is T2, EGFR phosphorylation (P-EGFR) (Homo sapiens, UniProt P00533).
T2 construct: endogenous in cells; host or cells: A549
T2 sequence (P00533 25-1210): as above
Description: Western blot of EGF-stimulated EGFR phosphorylation in A549 cells. It is filed as cell-based. The procedure: as §2, §3

Series [17] can be described thus: PAMPA-GIT assay. Conditions: pH 5.0, 6.2 and 7.4 (FIG. 8B).
Description: as §7
The PAMPA-GIT assay procedure was realized by using a method developed by pION. All liquid handling steps for the PAMPA assay are performed on a TECAN Fredom EVO150 robot and analyzed by the pION's PAMPA Evolution Software. The pION's GIT PAMPA includes the acceptor sink buffer (ASB), the GIT-0 Lipid Solution and the Stirwell™ PAMPA Sandwich plate, preloaded with magnetic disks. 4 μL of lipid were transferred in the acceptor well, followed by addition of 200 μL of ASB (pH 7.4). […] The PAMPA sandwich plate was assembled and placed on the Gut-Box™ and stirred with 40 μm ABL settings for 30 min. The distribution of the compounds in the donor and acceptor buffers (150 μL aliquot) was determined by UV spectra measurement from 200 to 498 nm using the Tecan infinite M-1000 pro microplate reader. Then the Permeability (Papp, 10 ^6 cm/s) of each compound was calculated by the pion PAMPA evolution software. The assays were repeated three times.

Regarding `Cc1cc(=O)n(-c2ccccc2)n1C` [Antipyrine], the “Papp values (background)” value in [1] is recorded as “low Papp values”.

Take `NC(=O)N1c2ccccc2C=Cc2ccccc21` [Carbamazepine]: the “absorption in the human gastrointestinal tract” value in series [2] is given as over 90%.

For `COc1cc(CC(=O)N2CC(=O)N[C@@H](Cc3ccccc3)CN(CC(N)=O)C(=O)CCSCc3ccc(cc3)C(=O)N[C@@H](CCCCN)CN(C(=O)CCC3CCCCC3)CC(=O)N[C@@H](Cc3ccccc3)CN(C(=O)CCc3ccccc3)CC(=O)N[C@@H](Cc3ccccc3)C2)cc(OC)c1` [M-2-5], the Papp at 1 h, 50 μM in series [3] turned out to be 266. Besides, in [4] (A549 versus HEK293), the “selectivity toward cancer cells over normal cells” value was about 8 fold. The IC50 in series [4] (read-out: IC50 for HEK293 cells, no EGF stimulation, CCK-8) came out at 62.1 µM; in series [6], 8.75 µM; in [8], 11.2 µM; in series [11] (CCK-8, read-out: IC50 of antiproliferative activity on EGF-stimulated cells), 8.23 µM; in [16] it was 17.7 µM. The “percent of wound closed” value in series [5] is recorded as 15.2%. The “decrease of wound closed compared with untreated control” value in [5] (control 55.3%) worked out at 40%. For the same compound, the “number of migrating cells relative to untreated control (100%)” value in series [7] turned out to be 64.8%. The “degradation by pronase monitored by HPLC” value in series [9] is “no detectable degradation”. In addition, the “P-EGFR level in tumor tissue” value in [10] is reported as “dramatic decrease”. In addition, the “suppression of EGF-driven cell proliferation at ˜10” value in [11] (at ˜10 (unit not given), versus control without EGF) is “complete suppression of cell proliferation”. In series [12], the “inhibition of P-ERK in tumor tissue” value was “slightly weaker efficiency”. Further, the “P-AKT level in tumor tissue” value in series [13] was “dramatic decrease”. Also, the “tumor volume versus PBS group” value in series [14] (10 mg/kg intraperitoneal) is “no significant differences”. In series [14] (50 mg/kg intraperitoneal), the “tumor growth versus PBS group” value is “significant suppression of tumor growth”. Further, the body weight gain entry in series [15] was “did not affect the body weight gain”. The “effect on EGF-induced EGFR activation” value in [16] (starved A549 cells, 20 μM M-2-5 for 4 h, EGF 100 ng/mL (FIG. 5C, 5D)) was “blocked a vast majority of EGFR activation”. For the same compound, in series [16] (starved A549 cells, 4 h pretreatment, 25 μM or more), the “inhibition of EGF stimulation of EGFR phosphorylation at 25 μM or more” value is on record as “almost complete blockage”. In addition, the “Papp, PAMPA-GIT (in words)” value in [17] is “favorable Papp without pH-dependence”.
